# Reference: publication PMC3708431 (Evidence-based Complementary and Alternative Medicine : eCAM, 2013)
# Assays:
# 5-lipoxygenase = target: T1, 5-lipoxygenase (Homo sapiens, UniProt P09917); experiment: spectrophotometric enzyme assay at […] nm, linoleic acid substrate, human recombinant enzyme; format: biochemical; conditions: read-out: Anti-inflammatory assay 5-LOX, IC50
# T1 construct: gene ALOX5
# T1 sequence (P09917 1-674): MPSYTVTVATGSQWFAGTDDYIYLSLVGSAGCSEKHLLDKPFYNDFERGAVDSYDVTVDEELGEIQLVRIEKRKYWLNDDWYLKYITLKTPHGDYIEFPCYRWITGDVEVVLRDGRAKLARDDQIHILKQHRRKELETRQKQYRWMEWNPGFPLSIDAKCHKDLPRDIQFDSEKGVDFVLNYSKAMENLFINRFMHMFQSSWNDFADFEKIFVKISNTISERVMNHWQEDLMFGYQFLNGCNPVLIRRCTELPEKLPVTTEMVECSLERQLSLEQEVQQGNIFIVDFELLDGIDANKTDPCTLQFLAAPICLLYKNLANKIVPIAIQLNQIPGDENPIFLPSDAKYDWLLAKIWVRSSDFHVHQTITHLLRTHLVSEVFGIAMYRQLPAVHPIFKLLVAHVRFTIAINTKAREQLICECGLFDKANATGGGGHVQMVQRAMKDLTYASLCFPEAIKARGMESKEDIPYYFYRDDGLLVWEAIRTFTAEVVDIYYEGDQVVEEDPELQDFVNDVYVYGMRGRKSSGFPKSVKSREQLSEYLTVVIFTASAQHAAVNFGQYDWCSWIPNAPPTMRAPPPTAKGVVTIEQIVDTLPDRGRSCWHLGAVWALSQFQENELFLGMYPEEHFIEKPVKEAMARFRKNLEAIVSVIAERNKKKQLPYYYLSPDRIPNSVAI
# acetylcholinesterase = target: T2, acetylcholinesterase (Electrophorus electricus, UniProt O42275); experiment: Ellman spectrophotometric assay at […] nm, electric eel enzyme; format: biochemical; conditions: read-out: Antiacetylcholinesterase assay, IC50
# T2 construct: gene ache; Type-VI-S, EC 3.1.1.7
# T2 sequence (O42275 24-633): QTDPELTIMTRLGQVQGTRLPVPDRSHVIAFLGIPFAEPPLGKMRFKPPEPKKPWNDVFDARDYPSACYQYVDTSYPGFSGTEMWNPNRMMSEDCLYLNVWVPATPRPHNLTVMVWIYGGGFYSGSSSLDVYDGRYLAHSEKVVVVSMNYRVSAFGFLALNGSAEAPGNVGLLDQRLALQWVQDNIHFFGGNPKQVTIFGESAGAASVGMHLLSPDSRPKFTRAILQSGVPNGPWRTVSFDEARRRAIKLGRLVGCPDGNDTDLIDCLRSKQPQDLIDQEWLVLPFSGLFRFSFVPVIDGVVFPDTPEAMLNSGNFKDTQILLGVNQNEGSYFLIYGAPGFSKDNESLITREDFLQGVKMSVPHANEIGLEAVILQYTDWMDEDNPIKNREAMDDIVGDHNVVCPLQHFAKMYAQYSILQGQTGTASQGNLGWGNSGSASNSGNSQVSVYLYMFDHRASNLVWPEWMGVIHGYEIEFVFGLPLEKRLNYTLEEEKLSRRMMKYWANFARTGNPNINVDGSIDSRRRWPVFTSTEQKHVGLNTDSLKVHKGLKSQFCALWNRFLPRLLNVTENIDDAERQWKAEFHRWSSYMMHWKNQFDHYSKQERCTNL
smiles,measurement,setting,value
"COc1cc2ccc(=O)oc2cc1O [SC, 7-hydroxy-6 methoxycoumarin]",IC50,5-lipoxygenase,1.76 ± 0.01 µM
same,IC50,acetylcholinesterase,270 ± 0.02 µM
